Measured values: PubChem BioAssay (NCI)
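GI50: concentration for 50% inhibition of growth. TGI is the concentration that stops growth completely.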

Tests used:
Assay in all cases: DTP human tumour cell line panel, 384-well format
UACC-257 melanoma = tested on: UACC-257 melanoma
A549 NSCLC = tested on: A549 NSCLC
ACHN renal = tested on: ACHN renal
NCI-H23 lung = tested on: NCI-H23 lung
MDA-MB-231 breast = tested on: MDA-MB-231 breast
HS 578T breast = tested on: HS 578T breast
A498 renal = tested on: A498 renal
MDA-MB-468 breast = tested on: MDA-MB-468 breast
SF-295 CNS = tested on: SF-295 CNS
HOP-62 NSCLC = tested on: HOP-62 NSCLC
UO-31 renal = tested on: UO-31 renal
NCI/ADR-RES ovarian = tested on: NCI/ADR-RES ovarian
DU-145 prostate = tested on: DU-145 prostate
OVCAR-8 ovarian = tested on: OVCAR-8 ovarian
UACC-62 melanoma = tested on: UACC-62 melanoma
SR leukemia = tested on: SR leukemia
RPMI-8226 leukemia = tested on: RPMI-8226 leukemia
HL-60(TB) leukemia = tested on: HL-60(TB) leukemia
EKVX NSCLC = tested on: EKVX NSCLC
RXF 393 renal = tested on: RXF 393 renal
OVCAR-3 ovarian = tested on: OVCAR-3 ovarian
SK-MEL-28 melanoma = tested on: SK-MEL-28 melanoma
SK-OV-3 ovarian = tested on: SK-OV-3 ovarian
MALME-3M melanoma = tested on: MALME-3M melanoma
HCT-15 colon = tested on: HCT-15 colon
SK-MEL-5 melanoma = tested on: SK-MEL-5 melanoma
SNB-19 CNS = tested on: SNB-19 CNS
BT-549 breast = tested on: BT-549 breast
HOP-92 NSCLC = tested on: HOP-92 NSCLC
OVCAR-4 ovarian = tested on: OVCAR-4 ovarian
KM12 colon = tested on: KM12 colon
LOX IMVI melanoma = tested on: LOX IMVI melanoma
SNB-75 CNS = tested on: SNB-75 CNS
M14 melanoma = tested on: M14 melanoma
PC-3 prostate = tested on: PC-3 prostate
HT29 colon = tested on: HT29 colon
COLO 205 colon = tested on: COLO 205 colon
SF-268 CNS = tested on: SF-268 CNS
SN12C renal = tested on: SN12C renal
IGROV1 ovarian = tested on: IGROV1 ovarian
T-47D breast = tested on: T-47D breast
TK-10 renal = tested on: TK-10 renal
K-562 leukemia = tested on: K-562 leukemia
NCI-H522 lung = tested on: NCI-H522 lung
NCI-H322M lung = tested on: NCI-H322M lung
NCI-H460 NSCLC = tested on: NCI-H460 NSCLC
786-0 renal = tested on: 786-0 renal
SF-539 CNS = tested on: SF-539 CNS
MOLT-4 leukemia = tested on: MOLT-4 leukemia
CCRF-CEM leukemia = tested on: CCRF-CEM leukemia
CAKI-1 renal = tested on: CAKI-1 renal
HCT-116 colon = tested on: HCT-116 colon
MDA-MB-435 melanoma = tested on: MDA-MB-435 melanoma
U251 glioblastoma = tested on: U251 glioblastoma
SW-620 colon = tested on: SW-620 colon
NCI-H226 lung = tested on: NCI-H226 lung

COc1cc(-c2cnn(C)c2)ccc1Nc1ncc2ccnc(N[C@@H](C)C(C)(C)C)c2n1
GI50 (UACC-257 melanoma): > 100 µM
TGI (UACC-257 melanoma): > 100 µM
GI50 (A549 NSCLC): 0.115 µM
TGI (A549 NSCLC): > 100 µM
GI50 (ACHN renal): 3.26 µM
TGI (ACHN renal): > 100 µM
GI50 (NCI-H23 lung): 2.41 µM
TGI (NCI-H23 lung): > 100 µM
GI50 (MDA-MB-231 breast): 3 µM
TGI (MDA-MB-231 breast): > 100 µM
GI50 (HS 578T breast): 1.7 µM
TGI (HS 578T breast): 45 µM
GI50 (A498 renal): 0.505 µM
TGI (A498 renal): > 100 µM
GI50 (MDA-MB-468 breast): 0.486 µM
TGI (MDA-MB-468 breast): > 100 µM
GI50 (SF-295 CNS): 3.54 µM
TGI (SF-295 CNS): > 100 µM
GI50 (HOP-62 NSCLC): 0.498 µM
TGI (HOP-62 NSCLC): > 100 µM
GI50 (UO-31 renal): 14.1 µM
TGI (UO-31 renal): > 100 µM
GI50 (NCI/ADR-RES ovarian): 0.442 µM
TGI (NCI/ADR-RES ovarian): > 100 µM
GI50 (DU-145 prostate): 0.376 µM
TGI (DU-145 prostate): > 100 µM
GI50 (OVCAR-8 ovarian): 0.326 µM
TGI (OVCAR-8 ovarian): > 100 µM
GI50 (UACC-62 melanoma): 7.46 µM
TGI (UACC-62 melanoma): 88.1 µM
TGI (SR leukemia): 0.0523 µM
GI50 (RPMI-8226 leukemia): 0.302 µM
TGI (RPMI-8226 leukemia): > 100 µM
GI50 (HL-60(TB) leukemia): 0.11 µM
TGI (HL-60(TB) leukemia): 0.318 µM
GI50 (EKVX NSCLC): > 100 µM
TGI (EKVX NSCLC): > 100 µM
GI50 (RXF 393 renal): 0.29 µM
TGI (RXF 393 renal): 13 µM
GI50 (OVCAR-3 ovarian): > 100 µM
TGI (OVCAR-3 ovarian): > 100 µM
GI50 (SK-MEL-28 melanoma): > 100 µM
TGI (SK-MEL-28 melanoma): > 100 µM
GI50 (SK-OV-3 ovarian): > 100 µM
TGI (SK-OV-3 ovarian): > 100 µM
GI50 (MALME-3M melanoma): > 100 µM
TGI (MALME-3M melanoma): > 100 µM
GI50 (HCT-15 colon): 0.05 µM
TGI (HCT-15 colon): > 100 µM
GI50 (SK-MEL-5 melanoma): > 100 µM
TGI (SK-MEL-5 melanoma): > 100 µM
GI50 (SNB-19 CNS): 60.3 µM
TGI (SNB-19 CNS): > 100 µM
GI50 (BT-549 breast): 53.6 µM
TGI (BT-549 breast): > 100 µM
GI50 (HOP-92 NSCLC): 27.5 µM
TGI (HOP-92 NSCLC): > 100 µM
GI50 (OVCAR-4 ovarian): > 100 µM
TGI (OVCAR-4 ovarian): > 100 µM
GI50 (KM12 colon): 0.0699 µM
TGI (KM12 colon): > 100 µM
GI50 (LOX IMVI melanoma): 0.0893 µM
TGI (LOX IMVI melanoma): > 100 µM
GI50 (SNB-75 CNS): 1.31 µM
TGI (SNB-75 CNS): > 100 µM
GI50 (M14 melanoma): 10.9 µM
TGI (M14 melanoma): > 100 µM
GI50 (PC-3 prostate): > 100 µM
TGI (PC-3 prostate): > 100 µM
GI50 (HT29 colon): 0.632 µM
TGI (HT29 colon): > 100 µM
GI50 (COLO 205 colon): 0.0809 µM
TGI (COLO 205 colon): > 100 µM
GI50 (SF-268 CNS): 2.08 µM
TGI (SF-268 CNS): > 100 µM
GI50 (SN12C renal): > 100 µM
TGI (SN12C renal): > 100 µM
GI50 (IGROV1 ovarian): > 100 µM
TGI (IGROV1 ovarian): > 100 µM
GI50 (T-47D breast): > 100 µM
TGI (T-47D breast): > 100 µM
GI50 (TK-10 renal): 23.2 µM
TGI (TK-10 renal): > 100 µM
GI50 (K-562 leukemia): 0.878 µM
TGI (K-562 leukemia): > 100 µM
GI50 (NCI-H522 lung): 0.577 µM
TGI (NCI-H522 lung): > 100 µM
GI50 (NCI-H322M lung): > 100 µM
TGI (NCI-H322M lung): > 100 µM
GI50 (NCI-H460 NSCLC): 0.0673 µM
TGI (NCI-H460 NSCLC): > 100 µM
GI50 ([…]-0 renal): 0.474 µM
TGI (786-0 renal): > 100 µM
GI50 (SF-539 CNS): 0.476 µM
TGI (SF-539 CNS): > 100 µM
GI50 (MOLT-4 leukemia): 0.026 µM
TGI (MOLT-4 leukemia): 0.0647 µM
GI50 (CCRF-CEM leukemia): 0.0835 µM
TGI (CCRF-CEM leukemia): 0.271 µM
GI50 (CAKI-1 renal): > 100 µM
TGI (CAKI-1 renal): > 100 µM
GI50 (HCT-116 colon): 0.0447 µM
TGI (HCT-116 colon): > 100 µM
GI50 (MDA-MB-435 melanoma): > 100 µM
TGI (MDA-MB-435 melanoma): > 100 µM
GI50 (U251 glioblastoma): 2.09 µM
TGI (U251 glioblastoma): > 100 µM
GI50 (SW-620 colon): 0.112 µM
TGI (SW-620 colon): > 100 µM
GI50 (NCI-H226 lung): > 100 µM
TGI (NCI-H226 lung): > 100 µM
